Measured values from patent publication US7812031B2, “Pyrimidine derivatives as orexin receptor antagonists” (Sanofi-Aventis, priority 2004, dated 2010).

Assays:
[1] = target: T1, human recombinant orexin-1 (hr-OX-1) receptor (Homo sapiens, UniProt O43613); assay: hr-125I-orexin-A radioligand competition binding, orexin-1 receptor; settings: displacement of 125I-orexin-A, CHO-hr-OX-1 plasmamembranes, 25° C., 60 minutes; read-out: Orex-1 IC50
T1 construct: expressed in transfected cells; host or cells: CHO (CHO-hr-OX-1 cells), purified plasma membrane fraction
T1 sequence (O43613 1-425): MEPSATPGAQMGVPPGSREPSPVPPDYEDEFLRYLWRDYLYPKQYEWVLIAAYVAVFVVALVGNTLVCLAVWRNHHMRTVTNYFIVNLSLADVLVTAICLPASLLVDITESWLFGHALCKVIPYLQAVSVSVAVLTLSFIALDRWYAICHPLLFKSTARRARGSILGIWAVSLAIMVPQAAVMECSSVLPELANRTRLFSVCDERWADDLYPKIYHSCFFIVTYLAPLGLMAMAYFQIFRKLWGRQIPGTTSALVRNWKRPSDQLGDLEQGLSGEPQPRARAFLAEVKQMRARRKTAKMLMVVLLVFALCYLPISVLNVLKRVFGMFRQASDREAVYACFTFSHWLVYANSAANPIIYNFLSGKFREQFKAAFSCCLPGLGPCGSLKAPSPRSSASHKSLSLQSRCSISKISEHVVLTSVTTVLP
Method: (§1) In vitro radioligand binding assays were used for determination of the affinities of the compounds for both the orexin-1 and orexin-2 receptors.
(§2) In the frame of hr-^125I-orexin-A radioligand competition (displacement) experiments a fixed concentration of hr-^125I-orexin-A is incubated with increasing concentrations of unlabeled test compound in the presence of highly purified plasmamembranes bearing either the human recombinant orexin-1 (hr-OX-1) or the human recombinant orexin-2 (hr-OX-2) receptors. Specific binding of hr-^125I-orexin-A to plasmamembranes is measured at each concentrations of the unlabeled compound and thus a competition curve is generated. The concentration of unlabeled compound displacing 50% of specific binding (IC50) is calculated. In case of competitive interaction the binding affinity constant of the unlabeled compound (K1) is calculated according to the Cheng-Prusoff equation (K1=IC50/(1+L*/KD). Affinity of unlabeled compound for the receptor is equal to 1/K1.
(§3) Culturing the Chinese hamster ovarian cells expressing human recombinant orexin-1 or orexin-2 receptor proteins (CHO-hr-OX-1 or CHO-hr-OX-2 cells) was carried out in cell culture medium (MEM medium, supplemented with 40 mg/l prolin, 20 mg/l gentamycin, 300 mg/l geneticin, 10% dialysed fetal calf serum).
(§4) Adherent cells were plated into Greiner flasks (175 cm^2). 4-6 days later culture medium was removed and cells were scarped in calcium- and magnesium-free phosphate buffered saline (PBS, 20 ml/flask). The cell suspension was centrifuged at 1,000 g for 5 minutes (4° C.). The resulting pellet was resuspended and homogenized with a teflon pestle (4° C.), then layered onto a discontinuous sucrose gradient and centrifuged at 105,000 g. Plasmamembrane fraction accumulated in the interface between 14 and 34% sucrose layers was separated and pelleted by a further centrifugation step at 105,000 g for 60 min (4° C.). The final pellet was resuspended in binding assay buffer and stored at −80° C. up to the day of radioligand binding experiment.
(§5) For ^125I-orexin-A competition binding studies, aliquots of cell membrane fractions containing either hr-orexin-1 or hr-orexin-2 receptors were incubated with ^125I-orexin-A in binding assay buffer at 25° C. for 60 minutes. Nonspecific binding was defined by 1 μM hr-orexin-A in both cases.
(§6) Test compounds were dissolved at a concentration of 1 mM in dimethylsulfoxide (DMSO). Serial dilution series were prepared from stock solutions (100% DMSO) with binding assay buffer in such a way that each samples contained a final concentration of 1% of DMSO in the receptor binding reaction mixture. After the incubation, samples were filtered through Whatman GF/C glass fibre filters using a SKATRON cell harvester, and the filters were washed with 5 ml of ice-cold buffer The radioactivity remained on the filter was counted in a gamma counter (Wallac Automatic Gamma Counter 1470 Wizard).

[2] = target: T2, human recombinant orexin-2 (hr-OX-2) receptor (Homo sapiens, UniProt O43614); assay: hr-125I-orexin-A radioligand competition binding, orexin-2 receptor; settings: displacement of 125I-orexin-A, CHO-hr-OX-2 plasmamembranes, 25° C., 60 minutes; read-out: Orex-2 IC50
T2 construct: expressed in transfected cells; host or cells: CHO (CHO-hr-OX-2 cells), purified plasma membrane fraction
T2 sequence (O43614 1-444): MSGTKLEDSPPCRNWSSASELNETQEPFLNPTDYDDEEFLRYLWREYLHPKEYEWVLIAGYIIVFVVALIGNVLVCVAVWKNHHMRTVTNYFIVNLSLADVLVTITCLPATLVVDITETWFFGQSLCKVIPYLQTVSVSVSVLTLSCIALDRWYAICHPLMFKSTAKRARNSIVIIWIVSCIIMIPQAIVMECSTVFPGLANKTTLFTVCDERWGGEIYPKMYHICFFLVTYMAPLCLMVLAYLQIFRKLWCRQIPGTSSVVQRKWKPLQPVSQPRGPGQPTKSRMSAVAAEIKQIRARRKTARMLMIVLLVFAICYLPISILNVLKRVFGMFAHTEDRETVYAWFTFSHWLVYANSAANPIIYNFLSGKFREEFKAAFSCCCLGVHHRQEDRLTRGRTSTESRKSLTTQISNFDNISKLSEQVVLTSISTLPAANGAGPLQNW
Method: as §1, §2, §3, §4, §5, §6

CN(CC(O)c1cccc(O)c1)C(=O)c1cnc(NCc2cccs2)nc1-c1ccccc1 (centres unmarked) (hydrate or solvate) [Example 17, 4-Phenyl-2-[(thiophen-2-ylmethyl)amino]pyrimidine-5-carboxylic acid [2-hydroxy-2-(3-hydroxyphenyl)ethyl]methylamide]
melting point: 85 to 87 °C

CN(Cc1ccccc1)c1ncc(C(=O)N2CCCCC2C(O)c2ccccc2)c(-c2ccccc2)n1 (racemic)
IC50 [1]: 11 nM | IC50 [2]: 6700 nM

CN(CC(O)c1cccc(OC(=O)C(C)(C)C)c1)C(=O)c1cnc(N(C)C)nc1-c1ccccc1Cl (centres unmarked) [2,2-Dimethylpropionic acid 3-{2-[(2-dimethylamino-4-(2-chlorophenyl)pyrimidine-5-carbonyl)methylamino]1-hydroxyethyl}phenyl ester]
IC50 [1]: 30 nM | IC50 [2]: 2900 nM

Cc1ccccc1-c1nc(N(C)Cc2ccccc2)ncc1C(=O)N(C)CC(O)c1cccc(O)c1 (centres unmarked) [2-(Benzylmethylamino)-4-(2-methylphenyl)pyrimidine-5-carboxylic acid [2-hydroxy-2-(3-hydroxyphenyl)ethyl]methylamide]
IC50 [1]: 22 nM | IC50 [2]: 5800 nM

COc1ccccc1C(=O)Nc1cccc(C(O)CN(C)C(=O)c2cnc(N(C)C)nc2-c2ccccc2)c1 (centres unmarked) [2-Dimethylamino-4-phenylpyrimidin-5-carboxylic acid {2-hydroxy-2-[3-(2-methoxy-benzoylamino)phenyl]ethyl}methylamide]
IC50 [1]: 15 nM | IC50 [2]: 320 nM

CN(CC(O)c1cccc(OCc2ccccc2)c1)C(=O)c1cnc(N(C)C)nc1-c1ccccc1 (centres unmarked) [2-Dimethylamino-4-phenylpyrimidine-5-carboxylic acid [2-(3-benzyloxyphenyl)-2-hydroxyethyl]methylamide]
IC50 [1]: 30 nM | IC50 [2]: 3600 nM

CC(C(O)c1ccccc1)N(C)C(=O)c1cnc(NCc2ccccn2)nc1-c1ccccc1 (centres unmarked) [4-Phenyl-2-[(pyridin-2-ylmethyl)amino]pyrimidin-5-carboxylic acid (2-hydroxy-1-methyl-2-phenylethyl)methylamide]
IC50 [1]: 12 nM | IC50 [2]: 5400 nM

CN(CC(O)c1cccc(OCc2ccccc2)c1)C(=O)c1cnc(N(C)C)nc1-c1ccc(Cl)c(Cl)c1 (centres unmarked) [Example 59, 2-Dimethylamino-4-(3,4-dichlorophenyl)pyrimidine-5-carboxylic acid [2-(3-benzyloxyphenyl)-2-hydroxyethyl]methylamide]
melting point: 68 to 70 °C
